In patent publication US20180237362A1, “NOVEL POLYGODIAL ANALOGS FOR THE TREATMENT OF CANCER AND OTHER PROLIFERATIVE DISEASES” (THE BOARD OF REGENTS OF THE UNIVERSITY OF TAXAS SYSTEM, priority 2015, published 2018):
Values belong to the compound of their own block, whether it stands above or below them.

Tests used:
[1] = test system: MDR uterine sarcoma cell line MES-SA/Dx5; assay: MTT antiproliferative assay, MDR MES-SA/Dx5; type: cell-based, human
Method: (§1) Human mammary carcinoma MCF-7 (ATCC HTB22) cells were cultured in RPMI supplemented with 10% FBS. The U87 cells (ATCC HTB-14) were cultured in DMEM culture medium, while the A549 cells (DSMZ ACC107) were cultured in RPMI culture medium supplemented with 10% heat-inactivated FBS. The GBM Hs683 (ATCC HTB-138) cells were cultivated in DMEM supplemented with 10% FBS. The human uterine sarcoma MES-SA (ATCC CRL1966) and MES-SA/D×5 cells were cultured in RPMI-1640 medium supplemented with 10% FBS with MES SA/D×5 maintained in the presence of 500 nM Doxorubicin (Sigma). SKMEL-28 cells (ATCC HTB72) and U373 GBM cells (ECACC 08061901) were cultured in RPMI culture medium supplemented with 10% heat-inactivated FBS. Cell culture media were supplemented with 4 mM glutamine (Lonza code BE17-605E), 100 μg/mL gentamicin (Lonza code 17-5182), and penicillin-streptomycin (200 units/ml and 200 μg/ml) (Lonza code 17-602E). The MDA-MB-231 (ATCC HTB-26) epithelial mammary adenocarcinoma cells were cultured in Eagle's minimum essential medium (EMEM; Invitrogen) containing 5% fetal calf serum (FCS, Cambrex), 2 mM L-glutamine (Invitrogen), 0.06% HEPES (Invitrogen) and penicillin (50 IU/ml)/streptomycin (50 µg/ml; Invitrogen) at 37° C. in a humidified atmosphere of 5% CO2 in air. Transformed mouse NPCs were cultured in suspension under neurosphere conditions at 37° C. in a humidified atmosphere of […] and 5% CO2 in DMEM F12 (Invitrogen 11320-074) supplemented with 1×B27 supplement (Invitrogen 17504-044), 5% penicillin-streptomycin (Biochrom 10378-017), 10 ng/ml EGF (R&D systems 236-EG), 10 ng/ml FGF (PeproTech 100-18B).
(§2) Antiproliferative properties of the synthesized compounds were evaluated by the MTT assay. All compounds were dissolved in DMSO at a concentration of either 100 μM or 50 μM prior to cell treatment. The cells were trypsinized and seeded at various cell concentrations depending on the cell type. The cells were grown for 24 h to 72 h, treated with compounds at concentrations ranging from 0.001 to 100 μM and incubated for 48 or 72 h in 100 or 200 μL media depending on the cell line used. The number of experiments and replicates varied depending on the cell line. Cells treated with 0.1% DMSO were used as a negative control; 1 μM PAO was used as a positive control.
Selection of the MES-SA/D×5 cell line was done according to Harker et al. (Harker & Sikic, 1985). The cells were split and allowed to adhere overnight. The next day cells were initially exposed to doxorubicin (DOX) at the concentration of 100 nM, which represented the GI50 concentration. The cells were maintained at this DOX concentration until their growth rate reached that of the untreated cells. The DOX concentration was then increased in two-fold increments following the same growth criteria at each concentration to a final DOX concentration of 500 nM. Each new DOX concentration required approximately 2 passages to reach the growth rate of the untreated cells.
Often, tumors initially respond to chemotherapy but eventually become refractory to the continuing treatment. Such acquired resistance commonly occurs through the development of a multi-drug resistant phenotype (MDR) (Gottesman et al., 2002 and Saraswathy & Gong, 2013) affecting many common chemotherapeutic agents, including the vinca alkaloids (Chen et al., 2000) and taxanes (Geney et al., 2002). In addition, the development of apoptosis resistance and MDR mechanisms is often related and concurrent (Ruefli et al., 2002 and Johnstone et al., 1999), and thus it was of interest to evaluate 5 against MDR cells. Towards this end, the MDR uterine sarcoma cell line MES-SA/D×5, established by growing the parent uterine sarcoma MES-SA in the presence of increasing concentrations of doxorubicin and resistant to multiple functionally and structurally unrelated molecules (Harker & Sikic, 1985), was utilized.

[2] = test system: U87 glioblastoma cell cultures; assay: MTT growth curves, U87; type: cell-based, human; details: apoptosis-resistant U87 GBM; concentrations up to 100 μM
Method: as §1
(§3) Antiproliferative properties of the synthesized compounds were evaluated by the MTT assay. All compounds were dissolved in DMSO at a concentration of either 100 μM or 50 μM prior to cell treatment. The cells were trypsinized and seeded at various cell concentrations depending on the cell type. […]

[3] = test system: human A549 non-small cell lung cancer (NSCLC); assay: MTT antiproliferative assay, A549; type: cell-based
Method: as §1, §2
(§4) The synthesized C12-Wittig derivatives were evaluated for antiproliferative activities in a panel of cancer cell lines that included apoptosis-resistant human U373 glioblastoma (GBM) (Lefranc et al., 2013), human A549 non-small cell lung cancer (NSCLC) and human SKMEL-28 melanoma (Mathieu et al., 2009) as well as apoptosis-sensitive human Hs683 anaplastic oligodendroglioma (Lefranc et al., 2013) and human MCF-7 breast cancer (Frolova et al., 2013).

[4] = test system: uterine sarcoma MES-SA cells; assay: MTT antiproliferative assay, MES-SA; type: cell-based, human; details: Homo sapiens, MES-SA, 48 h treatment, relative to DMSO control, read-out: GI50 in vitro values, MES-SA
Method: as §1, §3

[5] = test system: transgenic mouse glioma cells (neurosphere cultures); assay: CytoTox-Fluor cytotoxicity assay, neurosphere glioma cultures; type: cell-based; details: cdkn2a deletion, PDGFB amplification, TRPV1-deficient; 24 h; 5 at 20 μM, CBD at 10 μM
Method: FIGS. 5A-D. Activity of 5 against neurosphere glioma cell cultures with clinically relevant mutations. Transgenic mouse glioma cells of defined molecular subtypes were generated by forced expression of EGFRvIII (classical GBM subtype), PDGFB (proneural GBM subtype) in cdkn2a-deficient and cdkn2a/TRPV1-doubly deficient subventricular neural precursors (NPC). These primary cell cultures were treated for 24 hours either with 10 μM CBD versus a corresponding vehicle-control (containing 0.01% DMSO) or 20 μM of 5 versus vehicle control (0.02% DMSO). Cytotoxicity was measured 24 h after incubation and base-line cytotoxicity levels in the controls were arbitrarily defined as 1. Read-outs from treated cells were normalized to their respective vehicle controls and -fold change of relative cytotoxicity was calculated. Each bar represents the mean±SD from two independent experiments; statistical significance, as determined by unpaired t-tests, is indicated: *** represents p<0.001; ** p<0.005; * p=0.0257; ns not significant).
Human mammary carcinoma MCF-7 (ATCC HTB22) cells were cultured in RPMI supplemented with 10% FBS. […]
The CytoTox-Fluor cytotoxicity assay from Promega has been used according to manufacturer's instructions. […] After 2 hours of incubation at 37° C., the fluorescence intensity was measured using the Tecan InfiniteF200 fluorescence plate reader (485 nm Ex/520 nm Em). […]

[6] = test system: U373 human glioma cell line; assay: Quantitative videomicroscopy, U373; type: cell-based; details: at GI50 concentrations (Table 1)
Method: FIG. 8. In vitro videomicroscopic analysis of the anticancer effects of 1 and its C12-Wittig derivatives 5 and 13. The U373 human glioma cell line was treated with polygodial, 5 and 13 at their mean GI50 concentrations (Table 1) or left untreated. Videomicroscopy enabled taking pictures of the culture field every 4 minutes. The experiment was conducted once in triplicate. While the morphology of cells treated with 1 was fixed over time, 5 and 13 exerted cytostatic effects on U373 cells.
In an effort to gain insight into possible mechanisms associated with antiproliferative properties of 1 and the C12-Wittig derivatives, the morphological changes in cells treated with these compounds were studied with computer-assisted phase-contrast microscopy (Luchetti et al., 2012) (quantitative videomicroscopy).

[7] = test system: human Hs683 anaplastic oligodendroglioma; assay: MTT antiproliferative assay, Hs683; type: cell-based; details: Homo sapiens, Hs 683, 72 h treatment, sextuplicates, read-out: GI50 in vitro values, Hs683
Method: as §1, §2, §4

U373 cells = assay: Trypan blue viability assay, U373; type: cell-based, human; details: 72 h treatment
Method: FIG. 9. Viability of U373 cells by trypan blue staining. U373 cells were treated for 72 h with 1 or 13 and stained with trypan blue. The experiment was conducted once in triplicate. After having taken pictures, cells were fixed with ice-cold methanol and again stained with trypan blue as internal positive control.
To confirm the results obtained in the videomicroscopy experiments, trypan blue assay was employed to detect necrotic and late apoptotic cells that had lost their plasma membrane integrity (FIG. 9). […] These observations support the results of the MTT assay and provide an explanation for the effectiveness of the C12-Wittig derivatives against cells, which display resistance to apoptosis induction. In contrast, at the concentrations necessary to induce cancer cell death 1 behaves as a toxic fixative compound of little promise as a potential drug.

[8] = test system: human MCF-7 breast cancer; assay: MTT antiproliferative assay, MCF-7; type: cell-based; details: Homo sapiens, MCF7, 72 h treatment, sextuplicates, read-out: GI50 in vitro values, MCF-7
Method: as §1, §2, §4

[9] = test system: human U373 glioblastoma (GBM); assay: MTT antiproliferative assay, U373; type: cell-based; details: Homo sapiens, U373 MG, 72 h treatment, sextuplicates, read-out: GI50 in vitro values, U373
Method: as §1, §2, §4

[10] = test system: panel of cancer cell lines (A549, SKMEL-28, MCF-7, U373, Hs683); assay: MTT antiproliferative assay, panel of five cancer cell lines; type: cell-based, human; details: Homo sapiens; mean over five cell lines, 72 h treatment, MTT assay; read-out: GI50 in vitro values, Mean + SEM
Method: as §2, §4

human SKMEL-28 melanoma = assay: MTT antiproliferative assay, SKMEL-28; type: cell-based; details: Homo sapiens, SK-MEL-28, 72 h treatment, sextuplicates, read-out: GI50 in vitro values, SKMEL-28
Method: as §1, §2, §4

GI50 ([1]; Homo sapiens, MES-SA/Dx5, 48 h treatment, MTT assay, relative to DMSO control, read-out: GI50 in vitro values, MES-SA/Dx5): 10 µM
GI50 [4]: 0.007 µM
Compound: CC(=O)O[C@H]1C(=O)[C@@]2(C)[C@H]([C@H](OC(=O)c3ccccc3)[C@]3(O)C[C@H](OC(=O)[C@H](O)[C@@H](NC(=O)c4ccccc4)c4ccccc4)C(C)=C1C3(C)C)[C@]1(OC(C)=O)CO[C@@H]1C[C@@H]2O [Paclitaxel]
change of potency against MES-SA/Dx5 MDR cell line as compared with parent MES-SA cells ([1]; 48 h MTT): lost their potency by a factor of a thousand
effect on proliferation/viability of all cells, U87 [2]: no effect on proliferation of ca. 50% of cells
effect on proliferation/viability of all cells, A549 ([3]; apoptosis-resistant A549 NSCLC, concentrations up to 100 μM): no effect on proliferation of ca. 50% of cells

Compound: C=C(C)[C@@H]1CCC(C)=C[C@H]1c1c(O)cc(CCCCC)cc1O [CBD, cannabidiol, reference compound]
cytotoxicity against GBM neurosphere cultures lacking the TRPV1 gene [5]: loses its activity

GI50 [7]: 33 µM
GI50 ([3]; Homo sapiens, A549, 72 h treatment, MTT assay, sextuplicates, read-out: GI50 in vitro values, A549): 30 µM
GI50 [8]: 30 µM
GI50 [9]: 35 µM
GI50 [10]: 33 ± 1 µM
GI50 (human SKMEL-28 melanoma): 36 µM
Compound: C#CCCCOC(=O)/C=C/C1=CC[C@H]2C(C)(C)CCC[C@]2(C)[C@H]1C=O [Compound 13]
morphological effect by videomicroscopy [6]: inhibited cancer cell proliferation without inducing cell death
viability by trypan blue staining (U373 cells): still alive after 72 hr of treatment
